Common to all, as to assay type: in vivo
The subject of one assay is Musca domestica. Kind of assay: Test Example 4: filter paper with sucrose bait, Musca domestica. The following applies: 24 h, read-out: pest death rate. As to the method: A formulation of any one of the present compounds (1), (4), (6), (7), (9), (10), (11), (12), (13), (15), (16), (17), (18), (19), (20), (21), (22), (24), (25) and (26) obtained in Formulation Example 5 was diluted with water to prepare a test solution having 500 ppm of the active ingredient.
A filter paper having a diameter of 5.5 cm was spread on the bottom of a polyethylene cup having a diameter of 5.5 cm and 0.7 ml of the test solution was added dropwise onto the filter paper. As a bait, 30 mg of sucrose was uniformly placed on the filter paper. Into the polyethylene cup, 10 female imagoes of Musca domestica were released and the cup was sealed with a lid. After 24 hours, the number of surviving or dead Musca domestica was counted and the death rate of the pest was calculated.

A further assay concerns Culex pipiens pallens. Nature of the assay: Test Example 6: Culex pipiens pallens larvae in treated water. The following applies: 24 h, read-out: pest death rate. As to the method: A formulation of any one of the present compounds (4), (5), (6), (7), (8), (9), (11), (12), (15), (16), (18), (19), (20), (21), (22), and (26) obtained in Formulation Example 5 was diluted with water to prepare a test solution having 500 ppm of the active ingredient.
To 100 mL of ion-exchanged water, 0.7 ml of the test solution was added (active ingredient concentration: 3.5 ppm). Into the solution, 20 last-instar larvae of Culex pipiens pallens were released. After 1 day, the number of surviving or dead Culex pipiens pallens was counted and the death rate of the pest was calculated.

A further assay deals with Blattalla germanica. Kind of assay: Test Example 5: filter paper with sucrose bait, Blattalla germanica. Particulars: 144 h; 500 ppm active ingredient, 0.7 ml on filter paper; 2 male imagoes of Blattalla germanica; after 6 days; read-out: pest death rate. On the procedure: A formulation of any one of the present compounds (4), (5), (6), (8), (12), (15), (16), (18), (22), (23) and (24) obtained in Formulation Example 5 was diluted with water to prepare a test solution having 500 ppm of the active ingredient.
A filter paper having a diameter of 5.5 cm was spread on the bottom of a polyethylene cup having a diameter of 5.5 cm and 0.7 ml of the test solution was added dropwise onto the filter paper. As a bait, 30 mg of sucrose was uniformly placed on the filter paper. Into the polyethylene cup, 2 male imagoes of Blattalla germanica were released and the cup was sealed with a lid. After 6 days, the number of surviving or dead Blattalla germanica was counted and the death rate of the pest was calculated.

Some results are limits rather than exact numbers.

As to `N#CC(CCCC(F)(F)C(F)(F)F)S(=O)(=O)CC1CCCO1` (centres unmarked) [present compound (19), 6,6,7,7,7-pentafluoro-2-(tetrahydrofuran-2-ylmethanesulfonyl)heptanenitrile], the pest or weed control at 500 ppm in the assay with Musca domestica was at least 90%. Besides, the pest or weed control at 3.5 ppm in the assay with Culex pipiens pallens was at least 95%.
`N#CC(CCC(F)(F)C(F)(F)F)S(=O)(=O)CC1CCCO1` (centres unmarked) [present compound (18), 5,5,6,6,6-pentafluoro-2-(tetrahydrofuran-2-ylmethanesulfonyl)hexanenitrile]: the pest or weed control at 500 ppm with Blattalla germanica was 100%; in the assay on Musca domestica, at least 90%. Moreover, the pest or weed control at 3.5 ppm with Culex pipiens pallens is at least 95%.
For `N#CC(CC1CCOC1)S(=O)(=O)CCC(F)(F)F` (centres unmarked) [present compound (11), 3-(tetrahydrofuran-3-yl)-2-(3,3,3-trifluoropropylsulfonyl)propionitrile], in the assay with Musca domestica, the pest or weed control at 500 ppm is at least 90%. In addition, the pest or weed control at 3.5 ppm in the assay with Culex pipiens pallens is at least 95%.
For `N#CC(CC1CCC(=O)O1)S(=O)(=O)CCC(F)(F)F` (centres unmarked) [present compound (13), 3-(2-oxotetrahydrofuran-5-yl)-2-(3,3,3-trifluoropropylsulfonyl)propionitrile], in the assay on Musca domestica, the pest or weed control at 500 ppm was at least 90%.
Turning to `N#CC(C1CCSCC1)S(=O)(=O)CCC(F)(F)F` (centres unmarked) [present compound (4), 2-(tetrahydrothiopyran-4-yl)-2-(3,3,3-trifluoropropylsulfonyl)acetonitrile], the pest or weed control at 500 ppm in the assay with Blattalla germanica was 100%; in the assay on Musca domestica it was at least 90%. In the assay with Culex pipiens pallens, the pest or weed control at 3.5 ppm was at least 95%.
With `N#CC(C1CC[S+]([O-])C1)S(=O)(=O)CCC(F)(F)F` (centres unmarked) [present compound (8), 2-(1-oxo-1λ^4-tetrahydrothiophen-3-yl)-2-(3,3,3-trifluoropropylsulfonyl)acetonitrile], in the assay with Blattalla germanica, the pest or weed control at 500 ppm turned out to be 100%. Also, in the assay on Culex pipiens pallens, the pest or weed control at 3.5 ppm was at least 95%.
As for `N#CC(CC1CCCCO1)S(=O)(=O)CCC(F)(F)F` (centres unmarked) [present compound (12), 3-(2-tetrahydropyran-2-yl)-2-(3,3,3-trifluoropropylsulfonyl)propionitrile], the pest or weed control at 500 ppm in the assay on Blattalla germanica is 100%; with Musca domestica, at least 90%. In addition, in the assay with Culex pipiens pallens, the pest or weed control at 3.5 ppm is at least 95%.
For the molecule `C#CCC1CCC(CS(=O)(=O)CCC(F)(F)F)O1` (single isomer, unassigned) [present compound (24), 2-(prop-2-ynyl)-5-(3,3,3-trifluoropropanesulfonylmethyl)tetrahydrofuran], the pest or weed control at 500 ppm is 100% in the assay with Blattalla germanica and at least 90% in the assay with Musca domestica.
Regarding `N#CC(CCC(F)(F)C(F)(F)F)S(=O)(=O)CC1CCCCO1` (single isomer, unassigned) [present compound (22), 5,5,6,6,6-pentafluoro-2-(tetrahydropyran-2-ylmethanesulfonyl)hexanenitrile], the pest or weed control at 500 ppm with Blattalla germanica is 100%; with Musca domestica it was at least 90%. In addition, the pest or weed control at 3.5 ppm in the assay on Culex pipiens pallens is at least 95%.
Take `N#CC(C1CCS(=O)(=O)CC1)S(=O)(=O)CCC(F)(F)F` (centres unmarked) [present compound (6), 2-(1,1-dioxo-1λ^4-tetrahydrothiopyran-4-yl)-2-(3,3,3-trifluoropropylsulfonyl)acetonitrile]: the results for the pest or weed control at 500 ppm in the assay on Blattalla germanica and with Musca domestica were 100% and at least 90%, respectively. The pest or weed control at 3.5 ppm in the assay on Culex pipiens pallens was at least 95%.
On to `COC(=O)C(CCC(F)(F)C(F)(F)F)S(=O)(=O)CC1CCCO1` (centres unmarked) [present compound (25), methyl 5,5,6,6,6-pentafluoro-2-(tetrahydrofuran-2-ylmethanesulfonyl)hexanoate], for which the pest or weed control at 500 ppm in the assay with Musca domestica is at least 90%.
Regarding `N#CC(C1CC[S+]([O-])CC1)S(=O)(=O)CCC(F)(F)F` (centres unmarked) [present compound (5), 2-(1-oxo-1λ^4-tetrahydrothiopyran-4-yl)-2-(3,3,3-trifluoropropylsulfonyl)acetonitrile], the pest or weed control at 500 ppm in the assay on Blattalla germanica turned out to be 100%. The pest or weed control at 3.5 ppm in the assay on Culex pipiens pallens is at least 95%.
As to `N#CC(CCC(F)(F)C(F)(F)F)S(=O)(=O)CCC1OCCO1` (centres unmarked) [present compound (21), 5,5,6,6,6,-pentafluoro-2-[2-(1,3-dioxolan-2-yl)ethanesulfonyl]pentanenitrile], the pest or weed control at 500 ppm with Musca domestica is at least 90%. In the assay with Culex pipiens pallens, the pest or weed control at 3.5 ppm was at least 95%.
For `C#CCC1CCC(CSCCC(F)(F)F)O1` (single isomer, unassigned) [present compound (23), 2-(prop-2-ynyl)-5-(3,3,3-trifluoropropylthiomethyl)tetrahydrofuran], the pest or weed control at 500 ppm in the assay on Blattalla germanica is 100%.
On to `N#CC(CCC(F)(F)F)S(=O)(=O)CC1CCCO1` (centres unmarked) [present compound (17), 5,5,5-trifluoro-2-(tetrahydrofuran-2-ylmethanesulfonyl)pentanenitrile], for which the pest or weed control at 500 ppm in the assay on Musca domestica was at least 90%.
For `CCOC(=O)N1CCC(C(C#N)S(=O)(=O)CCC(F)(F)F)CC1` (centres unmarked) [present compound (1), 2-[N-(ethoxycarbonyl)piperidin-4-yl]-2-(3,3,3-trifluoropropylsulfonyl)acetonitrile], in the assay with Musca domestica, the pest or weed control at 500 ppm is at least 90%.
Take `N#CC(C1CCSCC1)S(=O)(=O)CCC(F)(F)C(F)(F)F` (centres unmarked) [present compound (16), 2-(tetrahydrothiopyran-4-yl)-2-(3,3,4,4,4-pentafluorobutylsulfonyl)acetonitrile]: the values for the pest or weed control at 500 ppm in the assay with Blattalla germanica and in the assay on Musca domestica were 100% and at least 90%, respectively. Further, the pest or weed control at 3.5 ppm in the assay on Culex pipiens pallens is at least 95%.
For `COC(=O)N1CCC(C(C#N)S(=O)(=O)CCC(F)(F)C(F)(F)F)CC1` (centres unmarked) [present compound (15), 2-[N-(methoxycarbonyl)piperidin-4-yl]-2-(3,3,4,4,4-pentafluorobutylsulfonyl)acetonitrile], the pest or weed control at 500 ppm in the assay on Blattalla germanica was 100%; in the assay with Musca domestica, at least 90%. Also, in the assay on Culex pipiens pallens, the pest or weed control at 3.5 ppm was at least 95%.
Turning to `N#CC(CC1CCCO1)S(=O)(=O)CCC(F)(F)F` (centres unmarked) [present compound (10), 3-(2-tetrahydrofuran-2-yl)-2-(3,3,3-trifluoropropylsulfonyl)propionitrile], the pest or weed control at 500 ppm with Musca domestica is at least 90%.
Turning to `N#CC(C1CCSC1)S(=O)(=O)CCC(F)(F)F` (centres unmarked) [present compound (7), 2-(tetrahydrothiophen-3-yl)-2-(3,3,3-trifluoropropylsulfonyl)acetonitrile], the pest or weed control at 500 ppm in the assay on Musca domestica is at least 90%. For the same molecule, the pest or weed control at 3.5 ppm with Culex pipiens pallens is at least 95%.
